Entries after “also recorded” stand apart in the source; their conditions may differ.
How the values were obtained:
[1] = Absorption spectra on photochemical reduction of TPPS2a; type: physicochemical; settings: benzene/TEA, peak shifted from 646 nm to 655 nm
Procedure: A mixture of 950 μl benzene/triethylamine (TEA) (18:7), 32 μl dimethyl sulfoxide (DMSO) and 18 μl TPPS2a (from a solution of 1 mg/ml in DMSO) was prepared and saturated with nitrogen for 5 min in a 1 ml cuvette. The mixture was then exposed to light from a 500 W high pressure Xenon lamp fitted to a Bausch and Lomb grating monochromator. The cuvette was exposed to 545±15 nm light at 15 W/m^2. The fluence rate was monitored by means of a UDT 11 A photodetector with a 223 radiometric filter. The absorption spectra was measured regularly by a Perkin-Elmer Lambda 15 UV/VIS spectrophotometer. The light pass was 1 cm.
In accordance with the method described by Harel et al. (Photochem. Photobiol. 23: 337-341, 1976), TPPS2a was exposed to light in a solution of triethylamine (TEA) in benzene saturated with nitrogen. The solution was exposed to light of 545 nm in a cuvette as described above in “Materials and Methods”.

V79 cells [2] = assay: Cell survival by colony-forming test after photosensitizer and light; type: cell-based, Chinese hamster
Procedure: (§1) Cells of the established line V79 (ATCC CCL-93) derived from Chinese hamster lung fibroblasts were used. The cells were grown in MEM medium containing 10% foetal calf serum (FCS from Gibco, Paisley, UK), 100 U ml^−1 penicillin and 100 μg ml^−1 streptomycin (Gibco) at 37° C. in an incubator flushed with 5% CO2 in air. The cells were subcultured twice a week.
The cells were inoculated in 25 cm^2 flasks (Nunclon, Denmark) containing MEM medium with 10% FCS and left at 37° C. for 4-5 hours for proper attachment to the substratum. Subsequently, the cells were washed 3 times with medium and exposed to 1 μg/ml TPPS2a or TPCS2a in serum-containing medium for 18 hours. The cells were subsequently washed 3 times with the sensitizer-free medium and incubated for 1 hour before light exposure. The cells were then exposed to red light (Phillips TL 20 W/09) filtered through a Cinemoid 35 filter or blue light (Appl. Photophysics, Nood. 3026, London). […]
Cell survival was measured by the colony-forming test as described by Berg et al. (Photochem. Photobiol. 53: 203-210, 1991). […] The cells were then fixed in ethanol, stained with methylene blue and the colonies counted. Inhibition of protein synthesis was assessed by [^3H]-leucine incorporation into proteins, measured at 24 hours post light exposure as described by Llorente et al. (FEBS Lett. 431: 200-204, 1998).

V79 cells [3] = assay: Inhibition of protein synthesis by [3H]-leucine incorporation (PCI of gelonin); type: cell-based, Chinese hamster
Procedure: as §1
The cells were inoculated in 25 cm^2 flasks (Nunclon, Denmark) containing MEM medium with 10% FCS and left at 37° C. for 4-5 hours for proper attachment to the substratum. Subsequently, the cells were washed 3 times with medium and exposed to 1 μg/ml TPPS2a or TPCS2a in serum-containing medium for 18 hours. The cells were subsequently washed 3 times with the sensitizer-free medium and incubated for 1 hour before light exposure. The cells were then exposed to red light (Phillips TL 20 W/09) filtered through a Cinemoid 35 filter or blue light (Appl. Photophysics, Nood. 3026, London). The fluence rates reaching the cells were 1.35 mW/cm^2 and 1.5 mW/cm^2 from the red and the blue lamps respectively.
Cell survival was measured by the colony-forming test as described by Berg et al. (Photochem. Photobiol. 53: 203-210, 1991). 1500 cells were inoculated in 25 cm^2 plastic tissue-culture flasks and treated with the photosensitizer and light as described above. After photochemical treatment the V79 cells were left for 5 days at 37° C. in serum-containing culture medium to allow for formation of countable colonies. The cells were then fixed in ethanol, stained with methylene blue and the colonies counted. Inhibition of protein synthesis was assessed by [^3H]-leucine incorporation into proteins, measured at 24 hours post light exposure as described by Llorente et al. (FEBS Lett. 431: 200-204, 1998).

V79 cells [4] = settings: Berg et al. Cancer Res. 59: 1180-1183, 1999; cited from earlier work

For “Tetraphenyl chlorin disulfonate [TPCS2a]”, the “increase in the extinction coefficient of band I of the Q-bands versus TPPS2a” value [1] was 5.8 fold, the “sensitivity of treated cells to photoinactivation with blue light relative to TPPS2a” value (V79 cells [2]; 18 hours incubation with sensitizer, 1 hour sensitizer-free medium, blue light, versus TPPS2a) was “equally sensitive; also recorded: equally efficient” and the “reduction induced by TPCS2a alone in the clonogenicity assay” value (V79 cells [2]; TPCS2a alone) was “not observed”. The “potentiation of the cytotoxicity of gelonin by TPCS2a and light” value (V79 cells [3]; 1 μg/ml TPCS2a plus 1 μg/ml gelonin, red light, protein synthesis 24 hours after exposure to light) was “strongly potentiate” and the “reduction in protein synthesis induced by TPCS2a alone” value (V79 cells [3]; 1 μg/ml TPCS2a, without gelonin) was 20%.
In the case of “gelonin: type I ribosome-inactivating protein toxin, transfer molecule for PCI”, the “toxicity of gelonin alone or in combination with light (literature)” value (V79 cells [4]) is listed as “low toxicity” and the “reduction of protein synthesis by gelonin alone” value (V79 cells [3]; 1 μg/ml gelonin for 18 hours) is listed as “about 10%”.
